According to patent US12194080B2, “Methods for identification, assessment, prevention, and treatment of metabolic disorders using PM20D1 and N-lipidated amino acids” (Dana-Farber Cancer Institute, Inc., priority 2015, dated 2025):

Columns and labels:
C2C12 cells = experiment: Cellular oxygen consumption rate (uncoupled respiration), C2C12 cells; format: cell-based, mouse; conditions: 50 μM, after oligomycin 1 μM
Protocol: C2C12, U2O5, and 293A cells were cultured in DMEM with 10% FBS and pen/strep. Primary inguinal (iWAT) and brown (BAT) adipocytes were obtained as follows. The stromal-vascular fraction of inguinal (iWAT) pad from 4-12 week old male mice was dissected, minced, and digested for 45 min. at 37° C. in PBS containing 10 mM CaCl2, 2.4 U/ml dispase II (Roche), and 1.5 U/ml collagenase D (Roche). The stromal-vascular fraction of brown fat (BAT) pads from newborn (P1-P14) pups was dissected, minced, and digested for 45 min at 37° C. in PBS containing 1.3 mM CaCl2, 120 mM NaCl, 5 mM KCl, 5 mM glucose, 100 mM HEPES, 4% BSA, and 1.5 mg/ml collagenase B (Roche). Digested tissue was diluted with adipocyte culture media (DMEM/F-12, GlutaMAX™ supplement, Life Technologies, with 10% FBS and pen/strep) and centrifuged (600×g for 10 min.). The pellet was resuspended in 10 ml adipocyte culture media, strained through a 40 μm filter, and plated. Differentiation was induced by application of an adipogenic cocktail containing 5 μg/ml insulin (Sigma), 5 μM dexamethasone (Sigma), 250 μM isobutylmethylxanthine (Sigma), and 1 μM rosiglitazone (Cayman) for 2 days. Two days after induction, cells were maintained in adipocyte culture media containing 5 μg/ml insulin and 1 μM rosiglitazone.
(§1) Cellular oxygen consumption rates were determined using an XF24 Extracellular Flux Analyzer (Seahorse Biosciences). Oligomycin was purchased from EMD Millipore, and FCCP and rotenone were purchased from Sigma. C2C12 or U2OS cells were seeded at 30,000 or 50,000 cells/well, respectively in an XF24 cell culture microplate (V7-PS, Seahorse Bioscience) and analyzed the following day. Primary iWAT or BAT adipocytes were seeded at 15,000 cells/well, differentiation was induced the following day as described, and the cells were analyzed on day 5. On the day of analysis, the cells were washed once with Seahorse respiration buffer (8.3 g/1 DMEM, 1.8 g/l NaCl, 1 mM pyruvate, 20 mM glucose, pen/strep), placed in 0.5 ml Seahorse respiration buffer, and incubated in a CO2-free incubator for 1 hr. Port injection solutions were prepared as follows (final concentrations in assay in parentheses): 10 μM oligomycin (1 μM final), […] amino acid (50 μM final), 2 μM FCCP (0.2 μM final), and 30 μM rotenone (3 μM final). The Seahorse program was run as follows: basal measurement, 3 cycles; inject port A (oligomycin), 3 cycles; inject port B (compounds), 8 cycles; inject port C (FCCP), 3 cycles; inject port D (rotenone), 3 cycles. Each cycle consisted of mix 4 min, wait 0 min, and measure 2 min. For data expressed as a percentage of oligomycin-treated basal, the respiration at cycle 6 was normalized to 100%, and the maximum respiration at any time point between cycles 7 and 15 inclusive was used.

[1] = system: primary inguinal fat cells, primary BAT cells, C2C12 cells, and U2OS cells; experiment: Uncoupled respiration cellular assays (variety of cell types); format: cell-based; conditions: N-acyl amino acids at 10-100 uM
Protocol: as §1

mouse PM20D1 [2] = target: T1, mouse PM20D1 (Mus musculus, UniProt Q8C165); experiment: In vitro PM20D1-catalyzed N-acyl amino acid hydrolysis; format: biochemical; conditions: N-acyl amide substrate 100 μM
T1 construct: Full-length mouse Pm20d1 cDNA (GE Dharmacon) was subcloned with an in-frame C-terminal 6× His and FLAG® tag; made in house; host or cells: 293A (HEK293A) cells stably infected with retrovirus
T1 sequence (Q8C165 25-503): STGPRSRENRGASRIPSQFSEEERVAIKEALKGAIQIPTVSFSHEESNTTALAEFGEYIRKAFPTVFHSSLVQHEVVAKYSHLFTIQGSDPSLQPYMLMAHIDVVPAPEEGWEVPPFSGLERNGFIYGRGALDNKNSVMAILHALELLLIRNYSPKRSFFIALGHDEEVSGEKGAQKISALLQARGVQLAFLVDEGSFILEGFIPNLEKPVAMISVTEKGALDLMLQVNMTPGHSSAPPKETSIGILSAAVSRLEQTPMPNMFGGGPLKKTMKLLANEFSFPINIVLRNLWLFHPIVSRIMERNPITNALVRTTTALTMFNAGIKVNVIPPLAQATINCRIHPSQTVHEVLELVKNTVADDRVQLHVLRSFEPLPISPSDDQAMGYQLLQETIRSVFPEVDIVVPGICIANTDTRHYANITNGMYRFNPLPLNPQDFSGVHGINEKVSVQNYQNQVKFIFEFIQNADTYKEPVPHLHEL
Protocol: (§2) The concentrated media was centrifuged to remove debris (600×g, 10 min, 4° C.) and the supernatant containing PM20D1-flag was decanted into a new tube. PM20D1-Flag was immunoaffinity purified overnight at 4° C. from the concentrated media using magnetic Flag-M2 beads (Sigma Aldrich). The beads were collected, washed three times in PBS, eluted with 3× Flag peptide ([…] in PBS, Sigma Aldrich), aliquoted, and stored at −80° C. For the purification of human PM20D1-flag, hPM20D1-flag plasmid (Origene) was transiently transfected into 293A cells. After two days, the media was changed, harvested 24 h later, concentrated, and purified exactly as described above.
(§3) In vitro PM20D1-catalyzed synthesis of N-acyl amino acids was measured by incubating purified PM20D1 protein with oleate (1.5 mM) and phenylalanine (0.1 mM) in PBS (to 100 μl final volume) at 37° C. for 1.5 hrs. In vitro PM20D1-catalyzed N-acyl amino acid hydrolysis was measured by incubating purified PM20D1 protein with the indicated N-acyl amino acid (0.1 mM) in PBS (to 100 μl final volume) at 37° C. for 1.5 hrs. Reactions were terminated by placing the vials at −80° C. and the products generated in vitro were analyzed by mass spectroscopy (MS).
(§4) Briefly, frozen serum (30 μl) for polar metabolomic analyses were extracted in 160 μl of 1:1 acetonitrile/methanol with inclusion of internal standard D3, ^15N-serine (1 nmol). Activity assays (100 μl) were extracted in 400 μl 1:1 acetonitrile/methanol. Following 30 s of thorough vortexing and 1 min of bath sonication, the polar metabolite fraction (supernatant) was isolated by centrifugation at 13,000×g for 10 min. Ten μl of this supernatant was analyzed by SRM-based targeted LC-MS/MS, or untargeted LC-MS.
(§5) For separation of polar metabolites, normal-phase chromatography was performed with a […] column (50 mm×4.60 mm, Phenomenex). Mobile phases were as follows: Buffer A, acetonitrile; Buffer B, 95:5 water/acetonitrile with 0.1% formic acid or 0.2% ammonium hydroxide with 50 mM ammonium acetate for positive and negative ionization mode, respectively. The flow rate for each run started at 0.2 ml/min for 2 min, followed by a gradient starting at 0% B and increasing linearly to 100% B over the course of 15 min with a flow rate of 0.7 ml/min, followed by an isocratic gradient of 100% B for 10 min at 0.7 ml/min before equilibrating for 5 min at 0% B with a flow rate of 0.7 ml/min. MS analysis was performed with an electrospray ionization (ESI) source on an Agilent 6430 QQQ LC—MS/MS. The capillary voltage was set to 3.5 kV, and the fragmentor voltage was set to 100 V. The drying gas temperature was 325° C., the drying gas flow rate was 10 l/min, and the nebulizer pressure was 45 psi. For polar targeted and untargeted metabolomic analysis, representative metabolites were quantified by SRM of the transition from precursor to product ions (corresponding to amino acid fragment) at associated collision energies. Several representative fragmentation ions are as follows: C18:1-Ala, 352>88; C18:1-Gly, 338>74; C18:1-Phe, 428>164; C18:1-Leu/Ile, 394>130; C20:4-Phe, 450>164; C20:4-Leu/Ile, 416>130. Untargeted LC-MS was performed by scanning a mass range of m/z 50-1200, and data were exported as mzdata files and uploaded to XCMSOnline (xcmsserver.nutr.berkeley.edu) to identify metabolites that were differentially changed. For targeted metabolomics analysis, metabolites were quantified by integrating the area under the peak and were normalized to internal standard values corresponding to 1 nmol D3, ^15N-serine.

mouse PM20D1 [3] = target: T1, mouse PM20D1; experiment: In vitro PM20D1-catalyzed synthesis of N-acyl amino acids; format: biochemical; conditions: for substrate of the PM20D1 synthase reaction: head group 100 μM, oleate or arachidonate 1.5 mM, C18:1-CoA 0.7 mM
Protocol: as §2, §3, §4, §5

## CCCCC/C=C\C/C=C\C/C=C\C/C=C\CCCC(=O)NC [N-arachidonoyl N-methyl amide, N-methyl N-arachidonoyl amide, reference compound]
C2C12 cells
  uncoupling activity (uncoupled respiration): did not stimulate uncoupled respiration
[1]
  uncoupled respiration in cells: inactive

## CCCCC/C=C\C/C=C\C/C=C\C/C=C\CCCC(=O)NCCCC(=O)O [N-arachidonoyl gamma amino butyric acid]
C2C12 cells
  uncoupling activity (uncoupled respiration): stimulate uncoupled respiration
[1]
  uncoupled respiration in cells: increased uncoupled respiration

## CCCCC/C=C\C/C=C\C/C=C\C/C=C\CCCC(=O)NCCc1ccc(O)c(O)c1 [N-arachidonoyl dopamine, reference compound]
C2C12 cells
  uncoupling activity (uncoupled respiration): did not stimulate uncoupled respiration
[1]
  uncoupled respiration in cells: inactive

## CCCCCCCC/C=C\CCCCCCCC(=O)N[C@@H](CO)C(=O)O [C18:1-Ser]
Mouse PM20D1 [2]
  substrate of the PM20D1 hydrolysis reaction: substrates

## N[C@@H](Cc1ccccc1)C(=O)O [Phe, phenylalanine]
Mouse PM20D1 [3]
  substrate of the PM20D1 synthase reaction: most efficiently converted to its corresponding N-acyl amino acid product

## CCCCCCCC/C=C\CCCCCCCC(=O)N[C@@H](Cc1ccccc1)C(=O)OC [N-oleoyl phenylalanine methyl ester, Methyl oleoyl-L-phenylalaninate]
C2C12 cells
  uncoupling activity (uncoupled respiration): completely abrogated uncoupling activity
[1]
  uncoupled respiration in cells: inactive

## CCCCCCCC/C=C\CCCCCCCC(=O)N[C@@H](Cc1ccccc1)C(N)=O [N-oleoyl phenylalanine amide, (S)-N-(1-amino-1-oxo-3-phenylpropan-2-yl)oleamide]
C2C12 cells
  uncoupling activity (uncoupled respiration): completely abrogated uncoupling activity
[1]
  uncoupled respiration in cells: inactive

## N[C@@H](CCC(=O)O)C(=O)O [glutamate]
Mouse PM20D1 [3]
  substrate of the PM20D1 synthase reaction: not substrates for the synthase reaction

## NCCO [ethanolamine]
Mouse PM20D1 [3]
  substrate of the PM20D1 synthase reaction: not substrates for the synthase reaction

## CCCCC/C=C\C/C=C\C/C=C\C/C=C\CCCC(=O)NCCS(=O)(=O)O [N-arachidonoyl taurine, reference compound]
C2C12 cells
  uncoupling activity (uncoupled respiration): did not stimulate uncoupled respiration
[1]
  uncoupled respiration in cells: inactive

## CCCCCCCC/C=C\CCCCCCCC(=O)N[C@@H](CCCCN)C(=O)O [C18:1-Lys, Oleoyl-L-lysine]
C2C12 cells
  uncoupling activity (uncoupled respiration): not

## CC(=O)[O-].CC(=O)[O-].[Zn+2] [Zn(OAc)2]
Mouse PM20D1 [3]; 2 mM added to the reaction in PBS
  effect on PM20D1 reaction rate: does not augment reaction rate and may decrease the rate

## CCCCC/C=C\C/C=C\CCCCCCCC(=O)N[C@@H](Cc1ccccc1)C(=O)O [N-linoleoyl phenylalanine]
[1]
  uncoupled respiration in cells: increased uncoupled respiration

## CCCCC/C=C\C/C=C\C/C=C\C/C=C\CCCCOC(CO)CO [noladin ether, reference compound]
[1]
  uncoupled respiration in cells: inactive

## CCCCC/C=C\C/C=C\C/C=C\C/C=C\CCCC(=O)N[C@H](C)CO [methanandamide, R(+)-methanandamide, reference compound]
C2C12 cells
  uncoupling activity (uncoupled respiration): did not stimulate uncoupled respiration
[1]
  uncoupled respiration in cells: inactive

## CCCCCC[C@@H](O)C/C=C\CCCCCCCC(=O)N[C@@H](C)c1ccccc1 [(S)-alpha-methylbenzyl ricinoleamide, reference compound]
[1]
  uncoupled respiration in cells: inactive

## CCCCCCCC/C=C\CCCCCCCC(=O)NCC(=O)O [C18:1-Gly]
Mouse PM20D1 [2]
  substrate of the PM20D1 hydrolysis reaction: substrates

## CCCCCCCC/C=C\CCCCCCCC(=O)N[C@@H](CCC(N)=O)C(=O)O [C18:1-Gln, Oleoyl-L-glutamine]
C2C12 cells
  uncoupling activity (uncoupled respiration): possessed the uncoupling activity

## CCCCC/C=C\C/C=C\C/C=C\C/C=C\CCCC(=O)N[C@@H](CO)C(=O)O [N-arachidonoyl serine]
[1]
  uncoupled respiration in cells: increased uncoupled respiration

## CCCCCCCCCCCCCCCC(=O)N[C@@H](Cc1ccccc1)C(=O)OC [N-palmitoyl phenylalanine methyl ester]
[1]
  uncoupled respiration in cells: inactive
